{"source": "patent US8586768B2", "about": "“Design, synthesis and functional characterization of rottlerin analogs” (priority 2009, dated 2013)", "assay": "Activity of simple rottlerin analogs compared with rottlerin (test not named)", "protocol": "Design and Synthesis of Novel Rottlerin Analogs. Since Rottlerin has proven to be a difficult target to make synthetically, analogs have been developed and tested in an attempt to localize the region of activity and improve that activity. Initially, simple analogs of Rottlerin itself, obtained from CalBioChem (La Jolla, Calif., Cat #557370), were prepared and analyzed. Two compounds gave important results, one representing a simplified methylene linkage present in the parent compound (PK103), and the other (PK203) came from a simple bromination of natural Rottlerin."}
{"compound": "Oc1cc(O)c(Cc2c(O)cc(O)cc2O)c(O)c1", "note": "[PK103]", "values": [{"measurement": "activity compared with Rottlerin", "value": "less activity than Rottlerin"}]}
